The source of these data is PubChem BioAssay (NCI).

Test systems include RPMI-8226 leukemia; A498 renal; SK-MEL-28 melanoma; HCT-15 colon; OVCAR-8 ovarian; M14 melanoma; SF-295 CNS; SF-539 CNS; NCI/ADR-RES ovarian; SNB-75 CNS.
Holding throughout (experiment): NCI anticancer screen, dose series, 48 h

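Interpolation was linear, between the two tested concentrations surrounding the appropriate level; five concentrations were tested over 48 hours in 96-well plates. Definition used: TGI = concentration required for complete inhibition of growth.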

Consider `CC1C(=O)O[C@H]2C1CC[C@@]1(C)[C@H](O)CC[C@@]13C[C@]2(O)OO3` (stereo partly specified), for which the TGI in the assay on RPMI-8226 leukemia, with A498 renal, with SK-MEL-28 melanoma, in the assay on HCT-15 colon, with OVCAR-8 ovarian and with M14 melanoma was above 100 µM throughout. The TGI with SF-295 CNS is above 100 µM.
Take `CCOP(=O)(OCC)C1=NC=CC=CC1n1c(-c2ccccc2)nn(CC)c1=O` (stereo unspecified): the TGI with RPMI-8226 leukemia, in the assay with SF-539 CNS, in the assay with SK-MEL-28 melanoma, in the assay on HCT-15 colon, with OVCAR-8 ovarian and in the assay on SF-295 CNS was above 100 µM each time.
As for `CC(NC(=O)C(N)CC(=O)O)NC(=O)N(C)C(C)(C)C` (stereo unspecified), the TGI in the assay with RPMI-8226 leukemia, in the assay on SF-539 CNS, in the assay on SK-MEL-28 melanoma, with NCI/ADR-RES ovarian, in the assay on HCT-15 colon and in the assay with OVCAR-8 ovarian was above 100 µM in each case. Also, the TGI in the assay with SNB-75 CNS, in the assay on M14 melanoma and in the assay on SF-295 CNS was above 100 µM each time.
As to `CC(=O)OCC1=C(C)C[C@H]([C@@H](COC(C)=O)C2CCC3C4C[C@H]5O[C@]56CC=CC(=O)[C@]6(C)C4CC[C@@]32C)OC1=O` (stereo partly specified), the TGI worked out at 0.181 µM with RPMI-8226 leukemia; 1.64 µM in the assay with A498 renal; 1.19 µM in the assay with SK-MEL-28 melanoma; 0.296 µM with HCT-15 colon; 0.714 µM in the assay on OVCAR-8 ovarian; 6.09 µM with SNB-75 CNS. The TGI is 0.785 µM with M14 melanoma and 5.59 µM in the assay with SF-295 CNS.
For the compound `CCSc1nc(N)c2c(-c3ccccc3)c3c(nc2n1)CCC3`, the TGI in the assay with RPMI-8226 leukemia was above 100 µM; with SF-539 CNS it was 53 µM; in the assay on SK-MEL-28 melanoma, above 100 µM; in the assay with NCI/ADR-RES ovarian, above 100 µM; in the assay on HCT-15 colon it was above 100 µM; in the assay with OVCAR-8 ovarian, above 100 µM. The TGI in the assay with SNB-75 CNS, in the assay with M14 melanoma and in the assay on SF-295 CNS was above 100 µM in each case.
Turning to `O=c1c2ccccc2[nH]c2cc(O)cc(O)c12`, the TGI in the assay with SF-539 CNS, in the assay with SK-MEL-28 melanoma, with HCT-15 colon, in the assay on OVCAR-8 ovarian, in the assay with SNB-75 CNS and in the assay on M14 melanoma was above 100 µM in each case. In the assay on SF-295 CNS, this compound showed a TGI above 100 µM.
Consider `CSc1nc2c(=O)n(-c3ccccc3)c(=S)n(-c3ccccc3)c2s1`, for which the TGI in the assay on RPMI-8226 leukemia, with SF-539 CNS, with SK-MEL-28 melanoma, in the assay with NCI/ADR-RES ovarian, in the assay with HCT-15 colon and with OVCAR-8 ovarian was above 100 µM in each case. Also, the TGI in the assay on SNB-75 CNS was 91.7 µM; in the assay with M14 melanoma, above 100 µM; with SF-295 CNS, above 100 µM.
Turning to `O=C1C(NCCN2CCOCC2)=C(Cl)C(=O)c2ncccc21`, the TGI turned out to be 0.377 µM in the assay on RPMI-8226 leukemia; 2.53 µM in the assay with SF-539 CNS; 3.98 µM in the assay with A498 renal; 2.99 µM in the assay with SK-MEL-28 melanoma; 1.52 µM in the assay on HCT-15 colon; 1.9 µM with OVCAR-8 ovarian. Further, the values for the TGI in the assay on SNB-75 CNS, in the assay on M14 melanoma and in the assay on SF-295 CNS were 2.35 µM, 1.73 µM and 2.77 µM, respectively.
For the compound `CCCCCCC(C)OC(=O)/C=C(\CC(=O)OC(C)CCCCCC)C(=O)OC(C)CCCCCC` (stereo unspecified), the TGI in the assay on RPMI-8226 leukemia, with SF-539 CNS, in the assay on A498 renal, in the assay on SK-MEL-28 melanoma, in the assay with HCT-15 colon and in the assay on OVCAR-8 ovarian was above 100 µM in each case. For the same compound, the TGI in the assay with SNB-75 CNS, in the assay with M14 melanoma and in the assay on SF-295 CNS was above 100 µM throughout.
Consider `CCOc1ccc2nc(NC(NC(=O)c3cccnc3)(C(F)(F)F)C(F)(F)F)sc2c1`, for which the TGI was above 100 µM in the assay on SF-539 CNS; above 100 µM with SK-MEL-28 melanoma; 93.3 µM in the assay on NCI/ADR-RES ovarian; above 100 µM in the assay on HCT-15 colon; 88 µM with OVCAR-8 ovarian; 68.2 µM in the assay with SNB-75 CNS. The TGI with M14 melanoma and in the assay with SF-295 CNS was above 100 µM throughout.
On to `CCN(CC)CCCC(C)NC(=O)c1ccc2c(c1)C(=O)c1ccccc1C2=O` (stereo unspecified), for which the TGI with RPMI-8226 leukemia stood at 52.4 µM; in the assay on SF-539 CNS, 36 µM; in the assay on A498 renal, 42.3 µM; in the assay with SK-MEL-28 melanoma, 29.8 µM; with HCT-15 colon, 40 µM; in the assay with OVCAR-8 ovarian, 66 µM. In addition, the TGI in the assay with SNB-75 CNS is above 86.9 µM; in the assay with M14 melanoma, 33.3 µM; with SF-295 CNS it was 45.8 µM.
For the compound `Cc1nc(C(N)=S)sc1C(=O)C/C(=N/N)C(=O)Nc1ccc(Cl)cc1`, the TGI in the assay with RPMI-8226 leukemia, in the assay with SF-539 CNS, in the assay on SK-MEL-28 melanoma, in the assay with NCI/ADR-RES ovarian, in the assay with OVCAR-8 ovarian and in the assay with SNB-75 CNS was above 100 µM in each case. Besides, the TGI in the assay with M14 melanoma and with SF-295 CNS was above 100 µM throughout.
In the case of `CC1CCc2sc3[nH]c(=S)n(-c4ccccc4)c(=O)c3c2C1` (stereo unspecified), the TGI in the assay with RPMI-8226 leukemia is above 100 µM; with SK-MEL-28 melanoma, above 100 µM; in the assay with NCI/ADR-RES ovarian it was above 100 µM; in the assay on HCT-15 colon, above 100 µM; in the assay on OVCAR-8 ovarian, above 100 µM; in the assay with SNB-75 CNS it was 91 µM. Besides, the TGI in the assay with M14 melanoma and with SF-295 CNS was above 100 µM throughout.
With `COC(=O)c1cc(C(=CCC[C@H]2CC[C@@]3(C)C(CCC4C3CC[C@@]3(C)C4CC[C@@H]3C(C)CCCC(C)C)C2)c2cc(Cl)c(OC(=O)c3ccccc3)c(C(=O)OC)c2)cc(Cl)c1OC(=O)c1ccccc1` (stereo partly specified), the TGI in the assay with RPMI-8226 leukemia, in the assay with SF-539 CNS, in the assay with SK-MEL-28 melanoma, in the assay with NCI/ADR-RES ovarian, in the assay with HCT-15 colon and with OVCAR-8 ovarian was above 10 µM throughout. Further, the TGI with SNB-75 CNS, with M14 melanoma and in the assay on SF-295 CNS was above 10 µM in each case.
In the case of `CCN(CC)C(=O)N1CN(c2ccccc2)C2(CCN(CCCSc3ccc(F)cc3)CC2)C1=O`, the TGI in the assay with RPMI-8226 leukemia was 41.6 µM; with SF-539 CNS, 20.7 µM; in the assay on SK-MEL-28 melanoma it was 37.1 µM; with NCI/ADR-RES ovarian, 83.4 µM; in the assay on HCT-15 colon, 26.4 µM; in the assay on OVCAR-8 ovarian, 54.4 µM. The values for the TGI in the assay with SNB-75 CNS, in the assay on M14 melanoma and with SF-295 CNS were 50.3 µM, 15.3 µM and 25.1 µM, respectively.
Regarding `Clc1c(C(Cl)(Cl)Cl)nsc1N1CCCCC1`, the TGI with RPMI-8226 leukemia was 40.9 µM; in the assay on SF-539 CNS, 68.5 µM; in the assay on A498 renal, 46.1 µM; in the assay on SK-MEL-28 melanoma, above 100 µM; in the assay on HCT-15 colon, 79.9 µM; with OVCAR-8 ovarian, 71 µM. The TGI with SNB-75 CNS was 81.8 µM; in the assay on M14 melanoma it was 56.4 µM; in the assay with SF-295 CNS it was 66.8 µM.
With `CC(C)C(=O)/C=C/c1ccc(Cl)c(Cl)c1`, the TGI with RPMI-8226 leukemia worked out at 87 µM; with SF-539 CNS, 26 µM; with A498 renal, 62.1 µM; in the assay with SK-MEL-28 melanoma it was 35.3 µM; with OVCAR-8 ovarian, 45.8 µM; with M14 melanoma it was 31.9 µM. This compound had a TGI with SF-295 CNS of 29.4 µM.
Take `O=[N+]([O-])c1ccc(Cl)cc1N/N=C/c1cccc2cccnc12`: the TGI in the assay with RPMI-8226 leukemia, in the assay with SF-539 CNS, in the assay with SK-MEL-28 melanoma, with NCI/ADR-RES ovarian, in the assay with HCT-15 colon and with OVCAR-8 ovarian was above 100 µM in each case. Moreover, the TGI in the assay on SNB-75 CNS, in the assay on M14 melanoma and with SF-295 CNS was above 100 µM each time.
With `O=C1c2ccccc2C(=O)c2c(O)ccc(O)c21`, the TGI with RPMI-8226 leukemia, with SF-539 CNS, in the assay on A498 renal, in the assay with SK-MEL-28 melanoma, in the assay on HCT-15 colon and in the assay with OVCAR-8 ovarian was above 100 µM in each case. In addition, the TGI in the assay with SNB-75 CNS, in the assay on M14 melanoma and in the assay with SF-295 CNS was above 100 µM each time.
Consider `COc1ccc(-c2cc(-c3cc(F)c(Cl)cc3Cl)on2)cc1OC`, for which the TGI is above 100 µM in the assay with RPMI-8226 leukemia; 27 µM with SF-539 CNS; above 100 µM in the assay with SK-MEL-28 melanoma; above 100 µM in the assay on NCI/ADR-RES ovarian; above 100 µM with HCT-15 colon; above 100 µM in the assay with OVCAR-8 ovarian. In addition, the TGI in the assay with SNB-75 CNS, in the assay with M14 melanoma and in the assay with SF-295 CNS was above 100 µM each time.
On to `CS(=O)(=O)OCCCOS(C)(=O)=O`, for which the TGI in the assay with RPMI-8226 leukemia, in the assay on SF-539 CNS, with A498 renal, in the assay with SK-MEL-28 melanoma, with HCT-15 colon and with OVCAR-8 ovarian was above 100 µM each time. The TGI in the assay on SNB-75 CNS, in the assay on M14 melanoma and with SF-295 CNS was above 100 µM each time.
Turning to `COc1ccc(/C=N/NC(=O)c2cnc3[nH]c(=O)n(C)c(=O)c3c2)cc1`, the TGI was above 100 µM in the assay with RPMI-8226 leukemia; above 100 µM in the assay with SK-MEL-28 melanoma; above 100 µM in the assay on NCI/ADR-RES ovarian; above 100 µM with HCT-15 colon; above 100 µM in the assay on OVCAR-8 ovarian; 38.6 µM in the assay with SNB-75 CNS. Besides, the TGI in the assay with M14 melanoma and in the assay with SF-295 CNS was above 100 µM in each case.
On to `CC1(C)CC2(C)CC1CC2NC(=O)CCN1CCOCC1` (stereo unspecified), for which the TGI in the assay on SF-539 CNS, in the assay on A498 renal, with SK-MEL-28 melanoma, in the assay on OVCAR-8 ovarian, in the assay with SNB-75 CNS and in the assay with M14 melanoma was above 100 µM each time. Also, in the assay with SF-295 CNS, the TGI was above 100 µM.
